According to PubChem BioAssay AID248 (DTP/NCI, 2004):
Where “and” joins values, the source holds several entries; their conditions need not be identical. Equal values may be shown once. Inconclusive results and toxic doses are left out. Rule as the data show it: active = T/C of 150% or more; inactive = T/C below 125%.

System: L1210 leukemia ip in BDF1 mice, survival T/C
Assay: NCI In Vivo Anticancer Drug Screen. Data for tumor model L1210 Leukemia (intraperitoneal) in B6D2F1 (BDF1) mice
Conditions: endpoint: mean survival time, higher = longer survival
Procedure, shortened: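 Tumor cells were implanted, animals were treated, and survival was followed. The result divides the treated measurement by the vehicle-control measurement.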

[1] = dose: 100.0 mg/kg/injection, schedule: Q04DX003 (ip), vehicle: saline with Tween-80
[2] = dose: 100.0 mg/kg/injection, schedule: Q01DX001 (ip), vehicle: saline with Tween-80
[3] = dose: 200.0 mg/kg/injection, schedule: Q01DX001 (ip), vehicle: saline with Tween-80
[4] = dose: 400.0 mg/kg/injection, schedule: Q01DX001 (ip), vehicle: saline with Tween-80
[5] = dose: 50.0 mg/kg/injection, schedule: Q01DX009 (ip), vehicle: saline
[6] = dose: 100.0 mg/kg/injection, schedule: Q01DX009 (ip), vehicle: saline
[7] = dose: 50.0 mg/kg/injection, schedule: Q01DX009 (ip), vehicle: saline with Tween-80
[8] = dose: 100.0 mg/kg/injection, schedule: Q01DX009 (ip), vehicle: saline with Tween-80
[9] = dose: 200.0 mg/kg/injection, schedule: Q01DX009 (ip), vehicle: saline with Tween-80
[10] = dose: 100.0 mg/kg/injection, schedule: Q04DX003 (ip), vehicle: saline
[11] = dose: 100.0 mg/kg/injection, schedule: Q04DX002 (ip), vehicle: saline with Tween-80
[12] = dose: 200.0 mg/kg/injection, schedule: Q04DX002 (ip), vehicle: saline with Tween-80
[13] = dose: 400.0 mg/kg/injection, schedule: Q04DX002 (ip), vehicle: saline with Tween-80

Measured: T/C

CC(C)N(C(=O)Nc1cccc(F)c1)C1CCCCC1
inactive: dose: 50.0 mg/kg/injection, schedule: Q01DX009 (ip), vehicle: gum acacia 105 % of control | dose: 100.0 mg/kg/injection, schedule: Q01DX009 (ip), vehicle: gum acacia 100 % of control and 88 % of control | dose: 200.0 mg/kg/injection, schedule: Q01DX009 (ip), vehicle: gum acacia 94 % of control | dose: 400.0 mg/kg/injection, schedule: Q01DX009 (ip), vehicle: gum acacia 90 % of control

O=C(COc1cc(Cl)c(Cl)cc1Cl)Nc1ccc(N=Nc2ccccc2)cc1
inactive: dose: 100.0 mg/kg/injection, schedule: Q04DX002 (ip), vehicle: Klucel (hydroxypropylcellulose) (HPC) 99 % of control | dose: 200.0 mg/kg/injection, schedule: Q04DX002 (ip), vehicle: Klucel (hydroxypropylcellulose) (HPC) 99 % of control | dose: 400.0 mg/kg/injection, schedule: Q04DX002 (ip), vehicle: Klucel (hydroxypropylcellulose) (HPC) 86 % of control

Cc1ccc(S(=O)(=O)F)cc1C(=O)Nc1ccc(OCCCc2c(N)nc(N)nc2N)cc1
inactive: dose: 37.5 mg/kg/injection, schedule: Q01DX001 (ip), vehicle: Klucel (hydroxypropylcellulose) (HPC) 96 % of control | dose: 75.0 mg/kg/injection, schedule: Q01DX001 (ip), vehicle: Klucel (hydroxypropylcellulose) (HPC) 94 % of control | dose: 150.0 mg/kg/injection, schedule: Q01DX001 (ip), vehicle: Klucel (hydroxypropylcellulose) (HPC) 98 % of control

CCCC1OC(C)C(C)O1 (stereo not given)
inactive: dose: 50.0 mg/kg/injection, schedule: Q01DX009 (ip), vehicle: Klucel (hydroxypropylcellulose) (HPC) 101 % of control | dose: 100.0 mg/kg/injection, schedule: Q01DX009 (ip), vehicle: Klucel (hydroxypropylcellulose) (HPC) 101 % of control | dose: 200.0 mg/kg/injection, schedule: Q01DX009 (ip), vehicle: Klucel (hydroxypropylcellulose) (HPC) 101 % of control

O=C1C(=O)c2ccccc2C(O)=C1c1ccc(Br)cc1
inactive: dose: 50.0 mg/kg/injection, schedule: Q01DX001 (ip), vehicle: carboxymethylcellulose (CMC) 120 % of control | dose: 100.0 mg/kg/injection, schedule: Q01DX001 (ip), vehicle: carboxymethylcellulose (CMC) 103 % of control

O=S(=O)(O)c1cc(O)c2c(N=Nc3c(S(=O)(=O)O)cc4cc(S(=O)(=O)O)cc(N=Nc5c(S(=O)(=O)O)cc6cc(S(=O)(=O)O)cc(O)c6c5O)c4c3O)cc(S(=O)(=O)O)cc2c1
inactive: [1] 94 % of control | dose: 200.0 mg/kg/injection, schedule: Q04DX003 (ip), vehicle: saline with Tween-80 96 % of control | dose: 400.0 mg/kg/injection, schedule: Q04DX003 (ip), vehicle: saline with Tween-80 96 % of control

CC(C)(O)CCCC1CCC2C3CCC4CCCCC4(C)C3CCC2(C)C1O (stereo not given)
inactive: dose: 100.0 mg/kg/injection, schedule: Q04DX002 (ip), vehicle: DMSO 86 % of control | dose: 200.0 mg/kg/injection, schedule: Q04DX002 (ip), vehicle: DMSO 96 % of control | dose: 400.0 mg/kg/injection, schedule: Q04DX002 (ip), vehicle: DMSO 92 % of control

Cc1cc(=S)cc(C)o1
inactive: dose: 100.0 mg/kg/injection, schedule: Q04DX002 (ip), vehicle: gum acacia 93 % of control | dose: 200.0 mg/kg/injection, schedule: Q04DX002 (ip), vehicle: gum acacia 109 % of control

O=C(OCCCC(C(=O)c1ccccc1)=P(c1ccccc1)(c1ccccc1)c1ccccc1)c1ccccc1
inactive: [2] 104 % of control | [3] 93 % of control | [4] 93 % of control

Cc1cnc2c(N)nn(C)c2n1
inactive: [5] 102 % of control | [6] 110 % of control | dose: 100.0 mg/kg/injection, schedule: Q04DX003 (ip), vehicle: alcohol 102 % of control | dose: 200.0 mg/kg/injection, schedule: Q04DX003 (ip), vehicle: alcohol 98 % of control

CC1(C)OC2C3COc4nc5c(N)ncnc5n4C(O3)C2O1 (stereo not given)
inactive: dose: 100.0 mg/kg/injection, schedule: Q01DX001 (ip), vehicle: steriod suspending solution 112 % of control | dose: 200.0 mg/kg/injection, schedule: Q01DX001 (ip), vehicle: steriod suspending solution 101 % of control | dose: 400.0 mg/kg/injection, schedule: Q01DX001 (ip), vehicle: steriod suspending solution 98 % of control

Cc1ccccc1N1CCN(CCC(=O)c2cc3ccccc3o2)CC1
inactive: dose: 5.0 mg/kg/injection, schedule: Q01DX009 (ip), vehicle: saline with Tween-80 104 % of control | dose: 9.5 mg/kg/injection, schedule: Q04DX003 (ip), vehicle: saline with Tween-80 96 % of control | dose: 10.0 mg/kg/injection, schedule: Q01DX009 (ip), vehicle: saline with Tween-80 100 % of control | dose: 18.0 mg/kg/injection, schedule: Q01DX001 (ip), vehicle: saline with Tween-80 94 % of control | dose: 19.0 mg/kg/injection, schedule: Q04DX003 (ip), vehicle: saline with Tween-80 116 % of control | dose: 20.0 mg/kg/injection, schedule: Q01DX009 (ip), vehicle: saline with Tween-80 106 % of control | dose: 37.5 mg/kg/injection, schedule: Q01DX001 (ip), vehicle: saline with Tween-80 101 % of control

Cc1cc(C)c2c(=O)[nH][nH]c2n1
inactive: [7] 105 % of control | [8] 100 % of control | [9] 91 % of control

Cc1cccc(C)c1NC(=O)NS(=O)(=O)c1ccccc1
inactive: [7] 90 % of control | [8] 100 % of control | dose: 100.0 mg/kg/injection, schedule: Q04DX003 (ip), vehicle: acetone 95 % of control | [9] 95 % of control | dose: 200.0 mg/kg/injection, schedule: Q04DX003 (ip), vehicle: acetone 103 % of control

CC(N)Cc1ccc(O)cc1 (stereo not given)
inactive: dose: 25.0 mg/kg/injection, schedule: Q01DX009 (ip), vehicle: saline 108 % of control | dose: 25.0 mg/kg/injection, schedule: Q04DX003 (ip), vehicle: saline 100 % of control | [5] 103 % of control | dose: 50.0 mg/kg/injection, schedule: Q04DX003 (ip), vehicle: saline 94 % of control | [6] 101 % of control | [10] 96 % of control | dose: 200.0 mg/kg/injection, schedule: Q01DX009 (ip), vehicle: saline 93 % of control | dose: 200.0 mg/kg/injection, schedule: Q04DX003 (ip), vehicle: saline 100 % of control | dose: 400.0 mg/kg/injection, schedule: Q04DX003 (ip), vehicle: saline 94 % of control

CCCCCCCCCCCC(c1ccccc1)[N+](C)(C)C (stereo not given)
inactive: dose: 0.5 mg/kg/injection, schedule: Q01DX001 (ip), vehicle: saline 103 % of control | dose: 1.0 mg/kg/injection, schedule: Q01DX001 (ip), vehicle: saline 94 % of control | dose: 1.0 mg/kg/injection, schedule: Q01DX009 (ip), vehicle: saline 91 % of control | dose: 2.0 mg/kg/injection, schedule: Q01DX001 (ip), vehicle: saline 100 % of control | dose: 2.0 mg/kg/injection, schedule: Q01DX009 (ip), vehicle: saline 109 % of control | dose: 4.0 mg/kg/injection, schedule: Q01DX001 (ip), vehicle: saline 96 % of control | dose: 4.0 mg/kg/injection, schedule: Q01DX009 (ip), vehicle: saline 110 % of control | dose: 8.0 mg/kg/injection, schedule: Q01DX001 (ip), vehicle: saline 97 % of control

CCOC(=O)/C=C(/C)N
inactive: [11] 95 % of control | [12] 91 % of control | [13] 95 % of control

COc1ccc(CC2=NCCc3cc(OC)c(OC)cc32)cc1OC
inactive: dose: 75.0 mg/kg/injection, schedule: Q01DX001 (ip), vehicle: saline 97 % of control | [6] 96 % of control and 90 % of control | [10] 110 % of control and 89 % of control | dose: 150.0 mg/kg/injection, schedule: Q01DX001 (ip), vehicle: saline 100 % of control

O=C(O)c1ccsc1C(=O)c1ccccc1
inactive: [2] 105 % of control | [3] 102 % of control | [4] 97 % of control

CCCC(C)OC(=O)Nc1cccc(O)c1 (stereo not given)
inactive: [8] 101 % of control | [9] 101 % of control | dose: 400.0 mg/kg/injection, schedule: Q01DX009 (ip), vehicle: saline with Tween-80 102 % of control

CC(=O)NNc1nc(C)cs1
inactive: [1] 97 % of control

Cc1cc2nc3c(N)ccc(N)c3nc2cc1N
inactive: [11] 97 % of control | [12] 97 % of control | [13] 105 % of control

CCc1ccc(C(=O)c2ccccc2)c2c1C(=O)c1ccccc1C2=O
inactive: [11] 91 % of control | [12] 88 % of control | [13] 102 % of control
